The nature of series [1]: Neurological deficit, positional sense test and gait and stance test, rats, p.o. More on the design: species or system rat (Sprague-Dawley). The settings on record: rat, in vivo, po. The method, then: (§1) Neurotoxicity is determined by the rotorod ataxia test in mice and by the positional sense test and gait and stance test in the rat. The following Table 2 presents the results of these anticonvulsant tests with respect to several (+) and (-) AAP enantiomeric compounds derived from optical resolution of racemic AAPs of the present invention. This Table 2 identifies the specific compounds tested by their chemical name and provides the test model, the route of administration, the animal species used, and the anticonvulsant activity and toxicity in terms of ED50 and TD50 values, (the median effective and toxic dose respectively), when intraperitoneally administered to mice, and when orally administered to rats. […] This species will be the subject of the complete anticonvulsant quantification test evaluation as described above, but after oral (gavage) administration of the candidate compound. […] Neurological deficit in rats is examined by the positional sense test and gait and stance test. […] Inability to do so rapidly indicates a neurologic deficit. In the gait and stance test, a neurologic deficit is indicated by a circular or a zigzag gait, ataxia, abnormal spread of the legs, abnormal body posture, tremor, hyperactivity, lack of exploratory behavior, somnolence, stupor, or catalepsy.

The subject of series [2] is neurological deficit in rats. The series is described as above. More on the design: species or system rat (Sprague-Dawley). The settings on record: rat, in vivo, po. On the procedure: as §1

Structures are written as SMILES. Where only a bound is given, the exact number is not on record here.

For the molecule `CC(Nc1ccc(Cl)cc1)c1ccncc1` (single isomer, unassigned; (+)) [Compound 1, (+) N-(4-Chlorophenyl)-1-(4-pyridyl)ethylamine], the TD50 in series [1] was above 500 mg/kg.
Take `CC(Nc1ccc(Cl)cc1)c1ccncc1` (single isomer, unassigned; (-)) [Compound 2, (-) N-(4-Chlorophenyl)-1-(4-pyridyl)ethylamine]: in series [2], the TD50 is listed as above 500.0 mg/kg.

Values taken from US6083964A, “Optical resolution of racemic aminoalkylpyridine anticonvulsants and (+) aminoalkylpyridine enantiomers as highly potent orally effective anticonvulsant drugs and excitatory amino acid antagonists” (K and K Biosciences, Inc., priority 1999, dated 2000).
